This note sets out measurements from PubChem BioAssay AID588846 (Broad Institute, 2011).

The structures appear in SMILES notation. The source made the active and inactive calls. How the calls were made is not given here.

Tested on in the first experiment: not listed separately
Nature of the experiment: HMLE_shGFP background line viability loss – cell-based, CellTiter-Glo luminescence, dry powder, set 2, counter-screen for breast cancer stem cell killers, dose response (AID 588846). As to conditions: HMLE_shGFP viability, CellTiter-Glo luminescence, 72 h; at 32 µM (top of the series). (ATP-based viability assays read luminescence as a measure of living cells.)
`O=C(NC1CCCC1)c1ccc(COc2ccccc2)o1`: the viability fraction was 95.7% (inactive).

As to `Cc1ccc(/C=C/C(=O)NC2=NCCS2)cc1`, the viability fraction was 88.1% (inactive). As to `CCc1ccc(/C=C/C(=O)NC2=NCCS2)cc1`, the viability fraction was 92.9% (inactive). Still for that read-out and setting: with `O=C(/C=C/c1ccc(-c2ccccc2)cc1)NC1=NCCS1` the figure was 13.7% (inactive); with `CC(C)c1ccc(/C=C/C(=O)NC2=NCCS2)cc1`, 14% (inactive); with `Cc1csc(NC(=O)c2ccc(CNc3ccccn3)o2)n1`, 80.2% (inactive). Same read-out and setting: with `O=C(/C=C/c1ccc(Cl)c(Cl)c1)NC1=NCCS1` the figure was 22.2% (inactive).

The next experiment relates to HMLE_shGFP viability, CellTiter-Glo luminescence, 72 h. Described as above.
Settings: not given
A word on the AC50: it is the concentration giving half of the maximal activity seen. Take `Cc1csc(NC(=O)c2ccc(COc3ccccc3F)o2)n1`: the half-maximal activity concentration (AC50) is 0.36 µM.

In the case of `COc1ccc(/C=C/C(=O)NC2=NCCS2)c(OC)c1`, the AC50 is 30 µM. Still for that read-out and setting: the same measure for `Cc1csc(NC(=O)c2ccc(COc3cccc(F)c3)o2)n1`: 4.4 µM.
